Experimental data from ChEMBL document CHEMBL1201862, “PubChem BioAssay data set” (2004).
One block for each compound: values may come before it. The source made the active and inactive calls.

Key:
Fatty acid synthase [1] = molecular target: T1, Fatty acid synthase (Homo sapiens, UniProt P49327); test: inhibition of human FAS-TE enzyme activity – biochemical, kinetic fluorescence intensity, dose response (AID 624326); format: functional;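 also: rate of fluorescence rise from hydrolysis of a fluorogenic O-methyl fluorescein ester substrate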
T1 sequence (P49327 whole entry): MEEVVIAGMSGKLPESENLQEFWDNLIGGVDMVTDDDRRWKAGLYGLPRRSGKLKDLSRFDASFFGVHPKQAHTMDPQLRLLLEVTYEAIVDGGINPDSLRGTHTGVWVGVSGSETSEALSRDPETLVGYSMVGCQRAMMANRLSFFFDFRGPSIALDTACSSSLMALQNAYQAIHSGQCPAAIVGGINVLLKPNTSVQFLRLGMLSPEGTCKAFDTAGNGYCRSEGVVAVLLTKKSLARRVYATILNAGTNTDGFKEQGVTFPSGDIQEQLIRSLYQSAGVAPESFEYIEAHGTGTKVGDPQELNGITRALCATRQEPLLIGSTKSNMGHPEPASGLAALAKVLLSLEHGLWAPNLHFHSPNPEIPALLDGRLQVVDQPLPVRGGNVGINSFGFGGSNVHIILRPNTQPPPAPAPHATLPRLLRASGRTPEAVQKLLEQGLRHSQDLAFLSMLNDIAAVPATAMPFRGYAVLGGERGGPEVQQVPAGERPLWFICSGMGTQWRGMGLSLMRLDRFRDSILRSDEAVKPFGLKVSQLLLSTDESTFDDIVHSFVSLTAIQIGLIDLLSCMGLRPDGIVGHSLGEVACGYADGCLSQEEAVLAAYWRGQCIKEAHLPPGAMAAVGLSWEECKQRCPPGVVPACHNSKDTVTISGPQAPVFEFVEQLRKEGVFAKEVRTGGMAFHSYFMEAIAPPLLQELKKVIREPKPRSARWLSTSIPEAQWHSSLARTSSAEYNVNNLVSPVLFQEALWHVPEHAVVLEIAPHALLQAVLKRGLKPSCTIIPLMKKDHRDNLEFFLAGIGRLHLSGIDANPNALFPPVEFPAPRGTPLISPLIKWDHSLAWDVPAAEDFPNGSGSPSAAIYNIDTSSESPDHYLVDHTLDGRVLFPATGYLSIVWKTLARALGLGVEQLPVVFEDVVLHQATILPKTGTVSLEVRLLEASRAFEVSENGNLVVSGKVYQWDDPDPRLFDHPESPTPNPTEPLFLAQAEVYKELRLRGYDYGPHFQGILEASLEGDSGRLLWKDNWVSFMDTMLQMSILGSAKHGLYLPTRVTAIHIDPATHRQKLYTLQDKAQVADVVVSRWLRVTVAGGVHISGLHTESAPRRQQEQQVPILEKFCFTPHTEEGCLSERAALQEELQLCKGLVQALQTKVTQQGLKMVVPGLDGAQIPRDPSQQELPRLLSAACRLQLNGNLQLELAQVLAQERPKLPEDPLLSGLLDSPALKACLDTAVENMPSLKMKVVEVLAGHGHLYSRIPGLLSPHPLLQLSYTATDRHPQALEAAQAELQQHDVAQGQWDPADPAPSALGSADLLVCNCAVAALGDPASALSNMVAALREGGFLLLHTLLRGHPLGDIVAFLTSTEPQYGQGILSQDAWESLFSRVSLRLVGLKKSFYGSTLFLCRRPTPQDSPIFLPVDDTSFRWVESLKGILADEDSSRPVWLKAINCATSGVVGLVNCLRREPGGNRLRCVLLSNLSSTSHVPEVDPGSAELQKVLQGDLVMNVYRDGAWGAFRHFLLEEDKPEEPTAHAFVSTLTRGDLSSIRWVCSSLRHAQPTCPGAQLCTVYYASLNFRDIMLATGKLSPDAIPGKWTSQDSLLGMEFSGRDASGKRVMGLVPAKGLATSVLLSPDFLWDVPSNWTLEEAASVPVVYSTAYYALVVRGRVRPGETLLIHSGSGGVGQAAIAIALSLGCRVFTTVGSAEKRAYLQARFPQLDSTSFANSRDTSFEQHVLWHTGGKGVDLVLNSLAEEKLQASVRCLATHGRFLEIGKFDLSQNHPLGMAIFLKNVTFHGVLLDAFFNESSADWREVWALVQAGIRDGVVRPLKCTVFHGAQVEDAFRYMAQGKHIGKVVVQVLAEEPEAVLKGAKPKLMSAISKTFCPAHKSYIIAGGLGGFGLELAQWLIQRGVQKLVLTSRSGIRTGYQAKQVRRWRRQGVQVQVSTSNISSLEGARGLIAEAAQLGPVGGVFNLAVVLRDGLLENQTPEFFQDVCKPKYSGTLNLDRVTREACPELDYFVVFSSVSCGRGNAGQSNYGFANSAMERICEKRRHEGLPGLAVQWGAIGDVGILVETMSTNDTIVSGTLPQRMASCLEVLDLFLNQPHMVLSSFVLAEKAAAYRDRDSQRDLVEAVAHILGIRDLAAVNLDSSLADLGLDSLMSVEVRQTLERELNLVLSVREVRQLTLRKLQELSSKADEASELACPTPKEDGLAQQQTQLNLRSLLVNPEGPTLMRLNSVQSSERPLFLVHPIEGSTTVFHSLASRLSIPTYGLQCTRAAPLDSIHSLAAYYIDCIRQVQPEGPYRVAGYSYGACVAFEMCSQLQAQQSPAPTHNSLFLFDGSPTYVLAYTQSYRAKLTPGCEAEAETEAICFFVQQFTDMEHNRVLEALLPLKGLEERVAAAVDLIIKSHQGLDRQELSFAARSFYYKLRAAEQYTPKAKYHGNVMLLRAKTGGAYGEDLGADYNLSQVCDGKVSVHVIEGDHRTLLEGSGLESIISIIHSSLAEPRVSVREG

Fatty acid synthase [2] = molecular target: T1, Fatty acid synthase; test: inhibition of human FAS-TE enzyme activity – biochemical, endpoint fluorescence intensity, uHTS hits, dose response (AID 624327); format: functional;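 also: fluorescence from hydrolysis of an O-methyl fluorescein acyl ester substrate by the enzyme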
Coagulation factor XII = molecular target: T2, Coagulation factor XII (Homo sapiens, UniProt P00748); format: functional;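 also: activated factor XIIa alpha cleaving a fluorogenic AMC peptide substrate; inhibitor potency from loss of enzyme activity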
T2 sequence (P00748 whole entry): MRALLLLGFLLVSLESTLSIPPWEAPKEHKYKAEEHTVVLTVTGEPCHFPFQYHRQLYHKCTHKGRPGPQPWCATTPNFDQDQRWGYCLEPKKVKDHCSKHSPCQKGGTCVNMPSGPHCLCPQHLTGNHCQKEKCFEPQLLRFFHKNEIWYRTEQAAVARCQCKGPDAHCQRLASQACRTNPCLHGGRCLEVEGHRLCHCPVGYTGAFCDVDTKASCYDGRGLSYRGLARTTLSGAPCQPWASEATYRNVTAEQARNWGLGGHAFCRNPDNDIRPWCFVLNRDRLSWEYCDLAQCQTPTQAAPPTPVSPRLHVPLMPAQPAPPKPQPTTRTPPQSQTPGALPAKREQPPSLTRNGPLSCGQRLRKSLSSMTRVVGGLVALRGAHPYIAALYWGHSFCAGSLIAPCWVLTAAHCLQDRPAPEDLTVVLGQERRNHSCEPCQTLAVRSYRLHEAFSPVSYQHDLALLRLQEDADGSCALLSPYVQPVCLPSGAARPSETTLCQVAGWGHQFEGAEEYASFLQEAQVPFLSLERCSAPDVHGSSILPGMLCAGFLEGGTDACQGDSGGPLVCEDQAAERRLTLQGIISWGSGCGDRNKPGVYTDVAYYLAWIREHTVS

[3] = molecular target: T3, Corticotropin-releasing factor receptor 2/Corticotropin-releasing factor-binding protein (Homo sapiens, UniProt P24387+Q13324); test: activators of CRF receptor 2 with binding protein – uHTS hits, confirmation (AID 602473); format: functional; details: read-out: EC50_Mean
T3 sequence (Q13324 whole entry): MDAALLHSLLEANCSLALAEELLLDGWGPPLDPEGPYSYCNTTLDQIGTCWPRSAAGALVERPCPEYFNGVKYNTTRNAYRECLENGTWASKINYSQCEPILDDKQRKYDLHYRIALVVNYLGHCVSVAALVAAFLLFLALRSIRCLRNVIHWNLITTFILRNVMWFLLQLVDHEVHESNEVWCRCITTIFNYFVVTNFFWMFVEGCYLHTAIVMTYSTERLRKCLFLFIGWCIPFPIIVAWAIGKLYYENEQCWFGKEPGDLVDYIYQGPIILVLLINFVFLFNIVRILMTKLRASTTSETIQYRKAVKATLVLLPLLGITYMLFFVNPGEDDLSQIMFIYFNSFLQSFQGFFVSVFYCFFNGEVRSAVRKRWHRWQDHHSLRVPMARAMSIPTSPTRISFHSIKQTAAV
T3 sequence (P24387 whole entry): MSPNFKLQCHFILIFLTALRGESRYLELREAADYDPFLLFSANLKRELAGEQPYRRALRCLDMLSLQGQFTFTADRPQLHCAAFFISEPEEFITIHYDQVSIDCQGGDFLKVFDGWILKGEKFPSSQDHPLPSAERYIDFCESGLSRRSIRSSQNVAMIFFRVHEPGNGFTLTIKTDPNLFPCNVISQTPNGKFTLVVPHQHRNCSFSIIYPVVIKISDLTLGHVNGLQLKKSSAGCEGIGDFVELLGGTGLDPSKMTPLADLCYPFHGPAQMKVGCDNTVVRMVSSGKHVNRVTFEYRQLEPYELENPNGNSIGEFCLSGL

Paired box protein Pax-8 = Paired box protein Pax-8 (Homo sapiens, UniProt Q06710); test: PAX8 transcriptional activity inhibition in RMG-I – RMG-I cells, luciferase, cherry-pick, dose response (AID 687027); format: functional, cell-based;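 also: luciferase reporter driven by Pax8 target thyroperoxidase promoter measured by SteadyGlo luminescence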
Paired box protein Pax-8, sequence (Q06710 whole entry): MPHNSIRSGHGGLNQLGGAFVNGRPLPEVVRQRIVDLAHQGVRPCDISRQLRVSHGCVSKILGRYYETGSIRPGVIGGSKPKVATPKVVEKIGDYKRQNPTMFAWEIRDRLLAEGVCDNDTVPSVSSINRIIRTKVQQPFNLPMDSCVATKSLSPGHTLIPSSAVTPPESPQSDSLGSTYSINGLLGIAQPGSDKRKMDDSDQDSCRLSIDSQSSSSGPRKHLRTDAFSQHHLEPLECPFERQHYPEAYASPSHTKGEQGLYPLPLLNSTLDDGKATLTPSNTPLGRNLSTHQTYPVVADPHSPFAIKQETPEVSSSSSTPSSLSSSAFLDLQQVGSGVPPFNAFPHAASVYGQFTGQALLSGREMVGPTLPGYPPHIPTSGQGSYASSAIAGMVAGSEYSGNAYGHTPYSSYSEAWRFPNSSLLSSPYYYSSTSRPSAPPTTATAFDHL

[4] = OVCAR-3 cell viability loss – plate reader, dry powder samples, PAX8 inhibitor project, dose response (AID 743044); format: functional, cell-based
[5] = blockade of melanocortin 4 receptor signaling – cell-based, plate reader, cherry pick, counter-screen for LGR2 antagonist project, dose response (AID 743444); format: functional;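 also: transfected HEK 293 cells stimulated with alpha-MSH peptide; potency of inhibitors of the alpha-MSH evoked signal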
[6] = blockers of bursicon-stimulated LGR2 cAMP reporter – cell-based, HEK293, CRE-luciferase reporter, cherry pick, set 2, dose response (AID 743343); format: functional;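 also: transfected cells were stimulated with diluted bursicon conditioned medium after compound addition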
[7] = molecular target: T4, Ubiquitin-conjugating enzyme E2 N (Homo sapiens, UniProt P61088); format: functional;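 also: Dose-response confirmation in a TR-FRET assay detecting UBC13-driven polyubiquitin chain formation, inhibition measured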
T4 sequence (P61088 whole entry): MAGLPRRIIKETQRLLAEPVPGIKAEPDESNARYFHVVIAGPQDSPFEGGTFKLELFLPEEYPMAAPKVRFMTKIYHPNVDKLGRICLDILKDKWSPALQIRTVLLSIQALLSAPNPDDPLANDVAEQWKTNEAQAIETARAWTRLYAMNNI

[8] = molecular target: FAD-linked sulfhydryl oxidase ALR (Homo sapiens, UniProt P55789); test: ALR-catalysed DTT oxidation blockers – biochemical, H2O2 detection, luminescence, cherry-pick, dose response (AID 493248)
FAD-linked sulfhydryl oxidase ALR, sequence (P55789 whole entry): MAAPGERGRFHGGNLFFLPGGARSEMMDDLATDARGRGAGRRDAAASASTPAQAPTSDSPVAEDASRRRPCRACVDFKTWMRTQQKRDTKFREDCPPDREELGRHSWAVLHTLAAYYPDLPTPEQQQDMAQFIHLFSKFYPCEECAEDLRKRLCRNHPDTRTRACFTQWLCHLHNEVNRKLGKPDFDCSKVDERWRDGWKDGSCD

[9] = molecular target: T5, Calpain-2 catalytic subunit (Sus scrofa, UniProt P43367); test: m-calpain protease blockers, concentration series – biochemical, fluorogenic peptide substrate, dose response (AID 1420); format: functional
T5 sequence (P43367 whole entry): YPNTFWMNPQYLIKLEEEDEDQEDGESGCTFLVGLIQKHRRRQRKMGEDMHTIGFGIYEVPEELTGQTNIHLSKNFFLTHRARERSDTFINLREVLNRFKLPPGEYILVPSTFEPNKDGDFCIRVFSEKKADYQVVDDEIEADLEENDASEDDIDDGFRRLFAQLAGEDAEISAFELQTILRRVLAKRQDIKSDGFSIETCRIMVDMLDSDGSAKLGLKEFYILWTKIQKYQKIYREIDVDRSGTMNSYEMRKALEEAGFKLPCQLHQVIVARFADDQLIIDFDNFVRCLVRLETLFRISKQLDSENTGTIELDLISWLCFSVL

[10] = Luminescence Cell-Based Dose Confirmation HTS to Identify Inhibitors of Platelet Dense Granule Release. [Related pubchem assays: 1663 (Primary HTS), 1678 (Summary of Project)]; format: functional
[11] = molecular target: Luciferin 4-monooxygenase (Photinus pyralis, UniProt P08659); test: inhibition of purified Photinus pyralis luciferase – biochemical, luminescence, dose response (AID 1891)
Luciferin 4-monooxygenase, sequence (P08659 whole entry): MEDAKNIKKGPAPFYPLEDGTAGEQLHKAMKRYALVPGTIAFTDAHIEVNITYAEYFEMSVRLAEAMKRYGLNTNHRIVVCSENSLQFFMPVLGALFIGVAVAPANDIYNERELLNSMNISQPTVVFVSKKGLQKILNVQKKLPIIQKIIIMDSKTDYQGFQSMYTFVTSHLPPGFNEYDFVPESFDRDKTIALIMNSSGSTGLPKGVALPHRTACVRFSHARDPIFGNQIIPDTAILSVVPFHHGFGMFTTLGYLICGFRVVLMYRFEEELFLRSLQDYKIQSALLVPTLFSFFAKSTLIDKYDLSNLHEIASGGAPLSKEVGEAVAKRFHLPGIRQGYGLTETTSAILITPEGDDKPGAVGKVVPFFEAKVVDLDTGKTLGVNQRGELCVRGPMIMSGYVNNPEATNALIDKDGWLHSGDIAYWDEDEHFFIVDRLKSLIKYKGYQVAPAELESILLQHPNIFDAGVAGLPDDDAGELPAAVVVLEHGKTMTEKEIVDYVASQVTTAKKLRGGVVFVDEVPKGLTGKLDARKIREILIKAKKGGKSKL

HEK293 = test: EBV LMP1 TES2 canonical NF-kB signalling blockers – cell-based, HEK293, luciferase, cherry-pick, dose response (AID 588343); format: functional; details: Homo sapiens

IC50 (Fatty acid synthase [1]): 1.33 µM (active) | IC50 (Fatty acid synthase [2]): 1.44 µM (active)
SMILES: O=C(COC(=O)c1cc([N+](=O)[O-])ccc1N1CCOCC1)NCc1ccc(F)cc1

IC50 (Fatty acid synthase [1]): 12.4 µM (active) | IC50 (Fatty acid synthase [2]): 13.1 µM (active)
SMILES: O=C(Cn1nc(-c2ccco2)ccc1=O)Nc1ccc(Cl)c(Cl)c1

IC50 (Coagulation factor XII): > 50 µM (inactive)
SMILES: O=C(O)CCN1C(=O)C2C3c4ccccc4C(c4ccccc43)[C@@H]2C1=O (some centres undefined)

IC50 (Fatty acid synthase [1]): 13.1 µM (active) | IC50 (Fatty acid synthase [2]): 11.6 µM (active)
SMILES: Cc1c(Br)c([N+](=O)[O-])nn1CCCC(=O)N1CCN(c2ccccc2)CC1

IC50 (Coagulation factor XII): > 50 µM (inactive)
SMILES: Cc1c(NC(=O)c2ccc(Br)o2)cccc1C(=O)O

IC50 (Fatty acid synthase [1]): 2.26 µM (active) | EC50 [3]: > 53 µM (inactive) | IC50 (Fatty acid synthase [2]): 2.04 µM (active)
SMILES: O=C(C[C@H]1C[C@H](C(=O)N2CCOCC2)[C@@]2(CCC3CCCC3)c3[nH]c4ccc(Cl)cc4c3CCN2C1=O)NCCN1CCOCC1

IC50 (Coagulation factor XII): 18 µM (active)
SMILES: O=C(Oc1ccc2c(=O)c(Cl)coc2c1)c1ccncc1

SMILES: COc1ccc2c3c(n(C)c2c1)[C@@H](CO)N(C(=O)Nc1ccc(F)cc1)CC31CCN(S(=O)(=O)c2cccc(C)c2)CC1
AC50 (Paired box protein Pax-8): 5.97 µM (active) | AC50 [4]: 64 µM (active)

SMILES: OC1CCC(Nc2ccn3nc(-c4cccc(OCc5ccccc5)c4)cc3n2)CC1 (centres undefined)
AC50 [5]: 37.1 µM (active) | AC50 [6]: 34.3 µM (active)

IC50 [7]: > 20 µM (inactive)
SMILES: O=C1c2cc(Cl)ccc2OC2(CCNCC2)C12CC(c1ccc(Cl)cc1)=NO2 (centres undefined)

IC50 (Coagulation factor XII): > 50 µM (inactive)
SMILES: COc1ccc(N2CCCn3c2nc2c3c(=O)n(Cc3ccc(C)cc3)c(=O)n2C)c(OC)c1

IC50 (Coagulation factor XII): > 50 µM (inactive) | AC50 [8]: 1.49 µM (active)
SMILES: CC(C)(C)c1ccc(Oc2ccc(NC(=O)CCCC(=O)O)cn2)cc1

IC50 (Coagulation factor XII): > 50 µM (inactive)
SMILES: Cc1ccccc1Cn1cnc2c(NS(C)(=O)=O)c(C)c(C)cc21

IC50 [9]: 9.01 µM (not active) | IC50 (Coagulation factor XII): > 50 µM (inactive)
SMILES: CO/N=C/c1ccc(Sc2ccccc2N)c([N+](=O)[O-])c1

SMILES: COC(=O)c1sc(NC(=O)c2ccc(OC)cc2OC)nc1C
EC50 [10]: 0.749 µM (active) | EC50 [11]: 0.251 µM (active) | AC50 (HEK293): 0.545 µM (active)

IC50 [9]: 4.76 µM (not active) | IC50 (Coagulation factor XII): > 50 µM (inactive)
SMILES: Cc1noc(C)c1CSc1nc2ccccc2c(=O)n1-c1ccc(F)cc1F

IC50 (Coagulation factor XII): > 50 µM (inactive)
SMILES: CCn1cc(C(=O)NCc2cccnc2)c(=O)c2cc(F)c(N3CCN(C(=O)c4ccco4)CC3)cc21
